Measurements reported in patent US11780893B2, “Kv1.3 blockers” (Zealand Pharma A/S, priority 2019, dated 2023).
Bridge positions count the residues as written; N and C are the ends. Square brackets hold non-standard residues; d marks the D form. Peptide text beside a SMILES is read from it. Nle = CCCC[C@H](N)C(=O)O

How the values were obtained:
[1] = target: T1, human Kv1.3 voltage-gated K+ channel (Homo sapiens, UniProt P22001); assay: cell-based; conditions: inhibition of thallium flux, CHO-DUKX cells with human Kv1.3; read-out: IC50
T1 construct: host or cells: CHO-DUKX
T1 sequence (P22001 whole entry): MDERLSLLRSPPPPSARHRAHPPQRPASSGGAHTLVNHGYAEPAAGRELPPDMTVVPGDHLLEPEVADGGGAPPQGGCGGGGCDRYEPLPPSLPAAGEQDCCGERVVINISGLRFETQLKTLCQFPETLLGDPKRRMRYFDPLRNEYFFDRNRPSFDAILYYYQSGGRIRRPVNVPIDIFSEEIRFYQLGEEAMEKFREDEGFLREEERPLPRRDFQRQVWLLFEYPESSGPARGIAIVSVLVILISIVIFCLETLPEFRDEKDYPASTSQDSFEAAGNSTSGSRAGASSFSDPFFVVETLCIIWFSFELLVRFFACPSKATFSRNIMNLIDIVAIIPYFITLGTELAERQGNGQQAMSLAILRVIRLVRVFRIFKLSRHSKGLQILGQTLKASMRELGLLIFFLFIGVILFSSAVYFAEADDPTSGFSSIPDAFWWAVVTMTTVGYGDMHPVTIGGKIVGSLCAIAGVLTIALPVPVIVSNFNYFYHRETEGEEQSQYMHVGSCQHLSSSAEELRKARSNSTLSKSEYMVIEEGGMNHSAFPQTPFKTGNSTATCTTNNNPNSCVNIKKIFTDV

Kv1.1 = target: T2, Kv1.1 (Homo sapiens, UniProt Q09470); assay: cell-based; conditions: for IC50: CHO cells, whole-cell patch clamp, read-out: Potency IC50 (nM) Kv1.1; for Selectivity Kv1.1/Kv1.3: ratio IC50[Kv1.1]/IC50[Kv1.3]
T2 construct: expressed in transfected cells; host or cells: Chinese Hamster Ovary (CHO)
T2 sequence (Q09470 whole entry): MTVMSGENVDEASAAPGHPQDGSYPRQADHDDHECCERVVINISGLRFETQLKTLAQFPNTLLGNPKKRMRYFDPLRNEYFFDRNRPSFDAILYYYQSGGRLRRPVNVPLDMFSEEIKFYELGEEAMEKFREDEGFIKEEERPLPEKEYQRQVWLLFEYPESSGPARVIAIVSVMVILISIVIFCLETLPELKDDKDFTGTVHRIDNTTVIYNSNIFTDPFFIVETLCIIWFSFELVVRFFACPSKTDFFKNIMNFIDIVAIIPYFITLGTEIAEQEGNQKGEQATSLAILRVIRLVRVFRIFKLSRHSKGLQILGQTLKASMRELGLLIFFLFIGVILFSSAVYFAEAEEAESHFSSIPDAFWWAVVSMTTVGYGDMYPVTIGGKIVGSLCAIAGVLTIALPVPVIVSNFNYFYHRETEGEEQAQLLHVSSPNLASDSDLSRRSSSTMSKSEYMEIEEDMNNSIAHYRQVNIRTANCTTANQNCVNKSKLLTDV

Kv1.2 = target: T3, Kv1.2 (Homo sapiens, UniProt P16389); assay: cell-based; conditions: CHO cells, whole-cell patch clamp; read-out: Potency IC50 (nM) Kv1.2
T3 construct: expressed in transfected cells; host or cells: Chinese Hamster Ovary (CHO)
T3 sequence (P16389 whole entry): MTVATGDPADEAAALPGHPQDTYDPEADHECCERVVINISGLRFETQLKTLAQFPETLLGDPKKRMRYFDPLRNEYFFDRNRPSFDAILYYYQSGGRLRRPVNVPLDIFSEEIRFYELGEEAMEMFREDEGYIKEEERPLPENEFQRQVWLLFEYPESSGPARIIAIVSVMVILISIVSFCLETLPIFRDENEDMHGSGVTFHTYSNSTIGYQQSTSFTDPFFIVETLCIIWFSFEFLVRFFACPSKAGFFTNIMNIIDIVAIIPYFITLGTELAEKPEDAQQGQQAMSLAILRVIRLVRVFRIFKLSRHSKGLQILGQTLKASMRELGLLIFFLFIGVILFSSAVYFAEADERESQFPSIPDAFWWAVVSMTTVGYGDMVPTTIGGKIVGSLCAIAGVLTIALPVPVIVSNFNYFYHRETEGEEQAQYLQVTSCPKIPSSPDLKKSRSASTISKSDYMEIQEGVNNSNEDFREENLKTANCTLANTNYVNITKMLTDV

Kv1.3 = target: T4, Kv1.3 (Homo sapiens, UniProt P22001); assay: cell-based; conditions: CHO cells, whole-cell patch clamp; read-out: Potency IC50 (nM) Kv1.3
T4 construct: expressed in transfected cells; host or cells: Chinese Hamster Ovary (CHO)
T4 sequence (P22001 whole entry): as the sequence (P22001 whole entry) above

Kv1.6 = target: T5, Kv1.6 (Homo sapiens, UniProt P17658); assay: cell-based; conditions: CHO cells, whole-cell patch clamp; read-out: Potency IC50 (nM) Kv1.6
T5 construct: expressed in transfected cells; host or cells: Chinese Hamster Ovary (CHO)
T5 sequence (P17658 whole entry): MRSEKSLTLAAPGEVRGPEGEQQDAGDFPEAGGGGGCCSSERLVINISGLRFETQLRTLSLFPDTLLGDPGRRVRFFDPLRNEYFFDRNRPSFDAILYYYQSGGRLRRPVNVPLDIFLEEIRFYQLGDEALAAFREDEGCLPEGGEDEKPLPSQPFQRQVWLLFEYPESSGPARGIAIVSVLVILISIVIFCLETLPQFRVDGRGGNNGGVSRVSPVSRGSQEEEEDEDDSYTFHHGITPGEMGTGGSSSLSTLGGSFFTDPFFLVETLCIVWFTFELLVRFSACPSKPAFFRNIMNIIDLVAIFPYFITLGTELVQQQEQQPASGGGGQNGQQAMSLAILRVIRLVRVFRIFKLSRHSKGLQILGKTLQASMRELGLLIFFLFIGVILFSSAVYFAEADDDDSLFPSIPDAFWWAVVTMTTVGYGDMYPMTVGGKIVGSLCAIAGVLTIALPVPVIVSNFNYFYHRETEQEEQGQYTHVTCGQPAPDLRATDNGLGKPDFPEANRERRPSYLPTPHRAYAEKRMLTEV

Rat whole blood = Rat whole blood (Rattus norvegicus, UniProt P15384)
Rat whole blood, sequence (P15384 whole entry): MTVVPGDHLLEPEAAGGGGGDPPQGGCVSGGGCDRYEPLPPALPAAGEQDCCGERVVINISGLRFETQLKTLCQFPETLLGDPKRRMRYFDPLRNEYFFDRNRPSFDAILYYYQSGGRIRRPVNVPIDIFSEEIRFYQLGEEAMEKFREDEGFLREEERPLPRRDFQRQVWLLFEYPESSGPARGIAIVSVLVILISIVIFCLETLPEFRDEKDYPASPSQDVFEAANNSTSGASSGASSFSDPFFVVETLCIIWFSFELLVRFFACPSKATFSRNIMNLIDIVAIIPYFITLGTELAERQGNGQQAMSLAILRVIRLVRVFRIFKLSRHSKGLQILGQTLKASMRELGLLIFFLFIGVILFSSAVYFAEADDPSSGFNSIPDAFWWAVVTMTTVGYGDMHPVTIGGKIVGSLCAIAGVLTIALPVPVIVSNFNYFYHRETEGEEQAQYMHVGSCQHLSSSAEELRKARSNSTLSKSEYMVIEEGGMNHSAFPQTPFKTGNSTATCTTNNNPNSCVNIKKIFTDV

| Structure (SMILES) | IC50 [1] [nM] | IC50 (Kv1.1) [nM] | Selectivity Kv1.1/Kv1.3 (Kv1.1) | IC50 (Kv1.2) [nM] | IC50 (Kv1.3) [nM] | IC50 (Kv1.6) [nM] | IC50 (Rat whole blood) [nM] |
| --- | --- | --- | --- | --- | --- | --- | --- |
| CCCC[C@@H]1NC(=O)[C@@H]2CSSC[C@H](NC(=O)[C@H](CCCNC(=N)N)NC(=O)[C@H](CCCC)NC(=O)[C@H](CC(=O)O)NC(=O)[C@H](CCCC)NC(=O)[C@@H](N)CC(N)=O)C(=O)N[C@@H](CCCNC(=N)N)C(=O)N[C@@H](C)C(=O)N[C@@H](CO)C(=O)N[C@@H](C(C)C)C(=O)N[C@@H](CCC(=O)O)C(=O)N[C@H]3CSSC[C@H](NC(=O)[C@H](CCCCN)NC(=O)[C@H](CCCCN)NC(=O)[C@H](CC(N)=O)NC1=O)C(=O)N[C@@H](CCCCN)C(=O)N[C@H](C(=O)N[C@@H](Cc1ccc(O)cc1)C(=O)N1CCC[C@H]1C(=O)N[C@@H](CCCNC(=N)N)C(N)=O)CSSC[C@H](NC(=O)[C@H](CCCCN)NC(=O)[C@H](CCC(N)=O)NC(=O)[C@H](CCCCN)NC3=O)C(=O)N[C@@H](CC(C)C)C(=O)N[C@@H](CCCCN)C(=O)N[C@@H](C)C(=O)N[C@@H]([C@@H](C)CC)C(=O)NCC(=O)N[C@@H](CO)C(=O)N[C@@H]([C@@H](C)CC)C(=O)N[C@@H](Cc1ccccc1)C(=O)NCC(=O)N[C@@H](CCCCN)C(=O)N2 [Compound 42] (H-N[Nle]D[Nle]RCRASVECKQKCLKAIGSIFGKC[Nle]NKKCKCYPR-NH2; disulfide 6-27, 12-32, 16-34) | 0.087 | > 3000 | >18600 | 109 | 0.16 | 316 | ≤ 1 |
| CCCC[C@@H]1NC(=O)[C@@H]2CSSC[C@H](NC(=O)[C@H](CCCNC(=N)N)NC(=O)[C@H](CCCC)NC(=O)[C@H](CO)NC(=O)[C@H](CCCC)NC(=O)[C@@H](N)CC(N)=O)C(=O)N[C@@H](CO)C(=O)N[C@@H](C)C(=O)N[C@@H](CO)C(=O)N[C@@H](C(C)C)C(=O)N[C@@H](CCC(=O)O)C(=O)N[C@H]3CSSC[C@H](NC(=O)[C@H](CCCCN)NC(=O)[C@H](CCCCN)NC(=O)[C@H](CC(N)=O)NC1=O)C(=O)N[C@@H](CCCCN)C(=O)N[C@H](C(=O)N[C@@H](Cc1ccc(O)cc1)C(=O)N1CCC[C@H]1C(=O)N[C@@H](CCCNC(=N)N)C(N)=O)CSSC[C@H](NC(=O)[C@H](CCCCN)NC(=O)[C@H](CCC(N)=O)NC(=O)[C@H](CCCCN)NC3=O)C(=O)N[C@@H](CC(C)C)C(=O)N[C@@H](CCCCN)C(=O)N[C@@H](C)C(=O)N[C@@H]([C@@H](C)CC)C(=O)NCC(=O)N[C@@H](CO)C(=O)N[C@@H]([C@@H](C)CC)C(=O)N[C@@H](Cc1ccccc1)C(=O)NCC(=O)N[C@@H](CCCCN)C(=O)N2 [Compound 46] (H-N[Nle]S[Nle]RCSASVECKQKCLKAIGSIFGKC[Nle]NKKCKCYPR-NH2; disulfide 6-27, 12-32, 16-34) | 0.11 | > 3000 | >9400 | 302 | 0.32 | 1390 | ≤ 1 |
| CCCC[C@@H]1NC(=O)[C@@H]2CSSC[C@H](NC(=O)[C@H](CCCNC(=N)N)NC(=O)[C@H](CCCC)NC(=O)[C@H](CC(=O)O)NC(=O)[C@H](CCCC)NC(=O)[C@@H](N)CC(N)=O)C(=O)N[C@@H](CO)C(=O)N[C@@H](Cc3c[nH]cn3)C(=O)N[C@@H](CO)C(=O)N[C@@H](C(C)C)C(=O)N[C@@H](CCC(=O)O)C(=O)N[C@H]3CSSC[C@H](NC(=O)[C@H](CCCCN)NC(=O)[C@H](CCCCN)NC(=O)[C@H](CC(N)=O)NC1=O)C(=O)N[C@@H](CCCCN)C(=O)N[C@H](C(=O)N[C@@H](Cc1ccc(O)cc1)C(=O)N1CCC[C@H]1C(=O)N[C@@H](CCCNC(=N)N)C(N)=O)CSSC[C@H](NC(=O)[C@H](CCCCN)NC(=O)[C@H](CCC(N)=O)NC(=O)[C@H](CCCCN)NC3=O)C(=O)N[C@@H](CC(C)C)C(=O)N[C@@H](CCCCN)C(=O)N[C@@H](C)C(=O)N[C@@H]([C@@H](C)CC)C(=O)NCC(=O)N[C@@H](CO)C(=O)N[C@@H]([C@@H](C)CC)C(=O)N[C@@H](Cc1ccccc1)C(=O)NCC(=O)N[C@@H](CCCCN)C(=O)N2 [Compound 47] (H-N[Nle]D[Nle]RCSHSVECKQKCLKAIGSIFGKC[Nle]NKKCKCYPR-NH2; disulfide 6-27, 12-32, 16-34) | 0.12 | > 3000 | >5600 | 772 | 0.54 | 609 | ≤ 1 |
